# Laboratory results as given in patent US7569578B2, “Heterocyclic anti-migraine agents” (Bristol-Meyers Squibb Company, priority 2003, dated 2009).
# Biological target: T1, Human CGRP1 Receptor (Homo sapiens, UniProt O60894+Q16602)
# T1 construct: endogenous in cells; host or cells: SK-N-MC cells (membrane homogenate)
# Assay: CGRP Binding Assay ([125I]-CGRP radioligand displacement, SK-N-MC membrane homogenate)
# Conditions: [125I]-CGRP displacement, SK-N-MC homogenate, room temperature 2 h; read-out: Human CGRP1 Receptor IC50
# T1 sequence (Q16602 23-461): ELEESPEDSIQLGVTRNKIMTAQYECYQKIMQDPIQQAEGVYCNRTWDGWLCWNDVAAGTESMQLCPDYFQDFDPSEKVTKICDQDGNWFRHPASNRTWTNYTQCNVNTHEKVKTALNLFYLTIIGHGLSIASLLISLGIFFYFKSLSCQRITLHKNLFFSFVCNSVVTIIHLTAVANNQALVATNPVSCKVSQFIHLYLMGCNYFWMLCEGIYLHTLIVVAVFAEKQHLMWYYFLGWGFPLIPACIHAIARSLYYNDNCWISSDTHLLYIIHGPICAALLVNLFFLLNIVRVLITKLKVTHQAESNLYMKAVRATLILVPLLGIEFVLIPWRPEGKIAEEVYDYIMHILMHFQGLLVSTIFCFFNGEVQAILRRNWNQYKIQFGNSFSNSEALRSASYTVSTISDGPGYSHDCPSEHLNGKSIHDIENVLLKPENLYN
# T1 sequence (O60894 27-148): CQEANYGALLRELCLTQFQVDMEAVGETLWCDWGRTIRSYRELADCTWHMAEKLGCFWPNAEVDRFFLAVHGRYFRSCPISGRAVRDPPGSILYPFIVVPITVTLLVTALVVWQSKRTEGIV
row,IC50 [nM],SMILES
1,< 10,"Cc1cc(CC(NC(=O)N2CCC(N3Cc4ccccc4NC3=O)CC2)c2nccn2Cc2cccc(C#N)c2)cc2cn[nH]c12 (racemic) [Example 74, (±)-N-(1-(1-(3-Cyanobenzyl)-1H-imidazol-2-yl)-2-(7-methyl-1H-indazol-5-yl)ethyl)-4-(2-oxo-1,2-dihydroquinazolin-3(4H)-yl)piperidine-1-carboxamide]"
2,< 10,"Cc1cc(CC(NC(=O)N2CCC(N3Cc4ccccc4NC3=O)CC2)c2nccn2Cc2ccc(C(C)(C)C)cc2)cc2cn[nH]c12 (racemic) [Example 75, (±)-N-(1-(1-(4-tert-Butylbenzyl)-1H-imidazol-2-yl)-2-(7-methyl-1H-indazol-5-yl)ethyl)-4-(2-oxo-1,2-dihydroquinazolin-3(4H)-yl)piperidine-1-carboxamide]"
3,< 10,"Cc1cc(CC(NC(=O)N2CCC(N3Cc4ccccc4NC3=O)CC2)c2nccn2Cc2cccc(C(=O)O)c2)cc2cn[nH]c12 (racemic) [Example 76, (±)-3-((2-(2-(7-Methyl-1H-indazol-5-yl)-1-(4-(2-oxo-1,2-dihydroquinazolin-3(4H)-yl)piperidine-1-carboxamido)ethyl)-1H-imidazol-1-yl)methyl)benzoic acid]"
4,< 10,"Cc1cc(CC(NC(=O)N2CCC(N3Cc4ccccc4NC3=O)CC2)c2nccn2Cc2cccc(C(N)=O)c2)cc2cn[nH]c12 (racemic) [Example 77, (±)-N-(1-(1-(3-Carbamoylbenzyl)-1H-imidazol-2-yl)-2-(7-methyl-1H-indazol-5-yl)ethyl)-(2-oxo-1,2-dihydroquinazolin-3(4H)-yl)piperidine-1-carboxamide]"
5,< 10,"Cc1cc(CC(NC(=O)N2CCC(N3Cc4ccccc4NC3=O)CC2)c2nccn2-c2ccccc2[N+](=O)[O-])cc2cn[nH]c12 (racemic) [Example 79, (±)-N-(2-(7-Methyl-1H-indazol-5-yl)-1-(1-(2-nitrophenyl)-1H-imidazol-2-yl)ethyl)-4-(2-oxo-1,2-dihydroquinazolin-3(4H)-yl)piperidine-1-carboxamide]"
6,100 to 1000,"Cc1cc(CC(NC(=O)N2CCC(N3Cc4cccc(F)c4NC3=O)CC2)c2nnn[nH]2)cc2cn[nH]c12 (racemic) [Example 80, (±)-4-(8-Fluoro-2-oxo-1,2-dihydroquinazolin-3 [4H]-yl)-N-(2{7-methyl-1H-indazol-5-yl}-1-{1H-tetrazol-5-yl}ethyl)piperidin-1-carboxamide]"
7,< 10,"Cc1cc(CC(NC(=O)N2CCC(N3Cc4cccc(F)c4NC3=O)CC2)c2nnnn2CC2CCNCC2)cc2cn[nH]c12 (racemic) [Example 81, (±)-4-(8-Fluoro-2-oxo-1,2-dihydroquinazolin-3(4H)-yl)-N-(2-[7-methyl-1H-indazol-5-yl]-1-[1-(piperidin-4-ylmethyl)-1H-tetrazol-5-yl]ethyl)piperidin-1-carboxamide]"
8,10 to 100,"Cc1cc(CC(NC(=O)N2CCC(N3Cc4cccc(F)c4NC3=O)CC2)c2nnn(CC3CCNCC3)n2)cc2cn[nH]c12 (racemic) [Example 82, (±)-4-(8-Fluoro-2-oxo-1,2-dihydroquinazolin-3(4H)-yl)-N-(2-[7-methyl-1H-indazol-5-yl]-1-[2-(piperidin-4-ylmethyl)-1H-tetrazol-5-yl]ethyl)piperidin-1-carboxamide]"
9,< 10,"Cc1cc(CC(NC(=O)N2CCC(N3Cc4cccc(F)c4NC3=O)CC2)c2nnc3ccccn23)cc2cn[nH]c12 (racemic) [Example 83, (±)-N-(1-([1,2,4]Triazolo [4,3-a]pyridin-3-yl)-2-(7-methyl-1H-indazol-5-yl)ethyl)-4-(8-fluoro-2-oxo-1,2-dihydroquinazolin-3(4H)-yl)piperidine-1-carboxamide]"
10,< 10,"Cc1cc(CC(NC(=O)N2CCC(N3Cc4ccccc4NC3=O)CC2)c2nnnn2CC(C)(C)C)cc2cn[nH]c12 (racemic) [Example 84, (±)-N-(2-(7-Methyl-1H-indazol-5-yl)-1-(1-neopentyl-1H-tetrazol-5-yl)ethyl)-4-(2-oxo-1,2-dihydroquinazolin-3(4H)-yl)piperidine-1-carboxamide]"
11,< 10,"Cc1cc(CC(NC(=O)N2CCC(N3Cc4ccccc4NC3=O)CC2)c2ncc(Br)[nH]2)cc2cn[nH]c12 (racemic) [Example 86, (±)-N-(1-(4-Bromo-1H-imidazol-2-yl)-2-(7-methyl-1H-indazol-5-yl)ethyl)-4-(2-oxo-1,2-dihydroquinazolin-3(4H)-yl)piperidine-1-carboxamide]"
12,< 10,"Cc1cc(CC(NC(=O)N2CCC(N3Cc4ccccc4NC3=O)CC2)c2nc(Br)c(Br)[nH]2)cc2cn[nH]c12 (racemic) [Example 87, (±)-N-(1-(4,5-Dibromo-1H-imidazol-2-yl)-2-(7-methyl-1H-indazol-5-yl)ethyl)-4-(2-oxo-1,2-dihydroquinazolin-3(4H)-yl)piperidine-1-carboxamide]"
13,< 10,"Cc1cc(CC(NC(=O)N2CCC(N3Cc4ccccc4NC3=O)CC2)c2ncc(Br)n2Cc2cc(F)cc(F)c2)cc2c[nH]nc12 (racemic) [Example 88, (±)-N-(1-(1-(3,5-Difluorobenzyl)-5-bromo-1H-imidazol-2-yl)-2-(7-methyl-2H-indazol-5-yl)ethyl)-4-(2-oxo-1,2-dihydroquinazolin-3(4H)-yl)piperidine-1-carboxamide]"
14,< 10,"Cc1cn(Cc2cccc(F)c2)c(C(Cc2cc(C)c3[nH]ncc3c2)NC(=O)N2CCC(N3Cc4ccccc4NC3=O)CC2)n1 (racemic) [Example 89, (±)-N-(1-(1-(3-Fluorobenzyl)-4-methyl-1H-imidazol-2-yl)-2-(7-methyl-1H-indazol-5-yl)ethyl)-4-(2-oxo-1,2-dihydroquinazolin-3(4H)-yl)piperidine-1-carboxamide]"
15,100 to 1000,"Cc1c[nH]c(C(Cc2cc(C)c3[nH]ncc3c2)NC(=O)N2CCC(N3Cc4ccccc4NC3=O)CC2)n1 (racemic) [Example 90, (±)-N-(1-(4-Methyl-1H-imidazol-2-yl)-2-(7-methyl-1H-indazol-5-yl)ethyl)-4-(2-oxo-1,2-dihydroquinazolin-3(4H)-yl)piperidine-1-carboxamide]"
16,< 10,"Cc1cc(CC(NC(=O)N2CCC(N3Cc4ccccc4NC3=O)CC2)c2nccn2Cc2cccnc2)cc2cn[nH]c12 (racemic) [Example 91, (±)-N-(2-(7-Methyl-1H-indazol-5-yl)-1-(1-(pyridin-3-ylmethyl)-1H-imidazol-2-yl)ethyl)-4-(2-oxo-1,2-dihydroquinazolin-3(4H)-yl)piperidine-1-carboxamide]"
17,< 10,"Cc1cc(CC(NC(=O)N2CCC(N3Cc4ccccc4NC3=O)CC2)c2nccn2Cc2ccccn2)cc2cn[nH]c12 (racemic) [Example 92, (±)-N-(2-(7-Methyl-1H-indazol-5-yl)-1-(1-(pyridin-2-ylmethyl)-1H-imidazol-2-yl)ethyl)-4-(2-oxo-1,2-dihydroquinazolin-3(4H)-yl)piperidine-1-carboxamide]"
18,< 10,"Cc1cc(Cn2ccnc2C(Cc2cc(C)c3[nH]ncc3c2)NC(=O)N2CCC(N3Cc4ccccc4NC3=O)CC2)cc(Cl)n1 (racemic) [Example 93, (±)-N-(1-(1-((2-Chloro-6-methylpyridin-4-yl)methyl)-1H-imidazol-2-yl)-2-(7-methyl-1H-indazol-5-yl)ethyl)-4-(2-oxo-1,2-dihydroquinazolin-3(4H)-yl)piperidine-1-carboxamide]"
19,< 10,"Cc1cc(Cn2ccnc2C(Cc2cc(C)c3[nH]ncc3c2)NC(=O)N2CCC(N3Cc4ccccc4NC3=O)CC2)ccn1 (racemic) [Example 94, (±)-N-(2-(7-Methyl-1H-indazol-5-yl)-1-(1-((2-methylpyridin-4-yl)methyl)-1H-imidazol-2-yl)ethyl)-4-(2-oxo-1,2-dihydroquinazolin-3(4H)-yl)piperidine-1-carboxamide]"
20,< 10,"Cc1cc(CC(NC(=O)N2CCC(c3cc4ccccc4[nH]c3=O)CC2)c2cc3ccccc3cn2)cc2cn[nH]c12 (centres unmarked) [Example 36, N-(1-(Isoquinolin-3-yl)-2-(7-methyl-1H-indazol-5-yl)ethyl)-4-(2-oxo-1,2-dihydroquinolin-3-yl)piperidine-1-carboxamide]"
21,< 10,"Cc1cc(CC(NC(=O)N2CCC(N3Cc4ccccc4NC3=O)CC2)c2cc3ccccc3cn2)cc2cn[nH]c12 (centres unmarked) [Example 50, N-(1-(isoquinolin-3-yl)-2-(7-methyl-1H-indazol-5-yl)ethyl)-4-(2-oxo-1,2-dihydroquinazolin-3(4H)-yl)piperidine-1-carboxamide]"
22,< 10,"Cc1cc(CC(NC(=O)N2CCC(N3Cc4cccc(F)c4NC3=O)CC2)c2cc3ccccc3cn2)cc2cn[nH]c12 (centres unmarked) [Example 51, 4-(8-fluoro-2-oxo-1,2-dihydroquinazolin-3(4H)-yl)-N-(1-(isoquinolin-3-yl)-2-(7-methyl-1H-indazol-5-yl)ethyl)piperidine-1-carboxamide]"
23,< 10,"Cc1cc(CC(OC(=O)N2CCC(N3Cc4cccc(F)c4NC3=O)CC2)c2cc3ccccc3cn2)cc2cn[nH]c12 (centres unmarked) [Example 52, 1-(Isoquinolin-3-yl)-2-(7-methyl-1H-indazol-5-yl)ethyl 4-(8-fluoro-2-oxo-1,2-dihydroquinazolin-3(4H)-yl)piperidine-1-carboxylate]"
24,< 10,"Cc1cc(CC(OC(=O)N2CCC(N3Cc4ccccc4NC3=O)CC2)c2cc3ccccc3cn2)cc2cn[nH]c12 (centres unmarked) [Example 53, 1-(Isoquinolin-3-yl)-2-(7-methyl-1H-indazol-5-yl)ethyl 4-(2-oxo-1,2-dihydroquinazolin-3(4H)-yl)piperidine-1-carboxylate]"
25,< 10,"Cc1cc(CC(OC(=O)N2CCC(N3Cc4ccccc4NC3=O)CC2)c2ccccn2)cc2cn[nH]c12 (centres unmarked) [Example 54, 2-(7-methyl-1H-indazol-5-yl)-1-(pyridin-2-yl)ethyl 4-(2-oxo-1,2-dihydroquinazolin-3(4H)-yl)piperidine-1-carboxylate]"
26,< 10,"Cc1cc(CC(OC(=O)N2CCC(N3Cc4cccc(F)c4NC3=O)CC2)c2ccccn2)cc2cn[nH]c12 (centres unmarked) [Example 55, 2-(7-methyl-1H-indazol-5-yl)-1-(pyridin-2-yl)ethyl 4-(8-fluoro-2-oxo-1,2-dihydroquinazolin-3(4H)-yl)piperidine-1-carboxylate]"
